Source: paper PMC4019573, “Characterization of Protein Phosphatase 5 from Three Lepidopteran Insects: Helicoverpa armigera, Mythimna separata and Plutella xylostella” (PLoS ONE, 2014)

Legend:
[1] = biological target: T1, recombinant MsPP5 (Mythimna separata, UniProt A0A059TAW5); assay: Arachidonic acid stimulation assay and kinetics of recombinant MsPP5, pNPP as substrate; type: biochemical
T1 sequence (A0A059TAW5 1-490): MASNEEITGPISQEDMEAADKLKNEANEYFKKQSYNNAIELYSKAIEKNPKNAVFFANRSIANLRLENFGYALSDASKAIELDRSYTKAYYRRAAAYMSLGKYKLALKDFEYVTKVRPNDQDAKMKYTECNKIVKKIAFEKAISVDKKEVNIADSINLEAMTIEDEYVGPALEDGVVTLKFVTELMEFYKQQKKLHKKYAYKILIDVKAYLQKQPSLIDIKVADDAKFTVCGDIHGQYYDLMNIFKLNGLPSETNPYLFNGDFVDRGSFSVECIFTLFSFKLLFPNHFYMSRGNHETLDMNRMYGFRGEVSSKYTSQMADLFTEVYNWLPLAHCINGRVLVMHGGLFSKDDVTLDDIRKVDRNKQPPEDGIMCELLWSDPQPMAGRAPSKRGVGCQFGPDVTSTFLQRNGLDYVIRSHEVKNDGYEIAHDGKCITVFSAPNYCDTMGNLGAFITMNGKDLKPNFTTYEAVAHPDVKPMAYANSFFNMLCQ
Source text: (§1) Non-enzyme samples were taken as controls.

[2] = biological target: T2, recombinant HaPP5 (Helicoverpa armigera, UniProt A0A059TAS5); assay: Arachidonic acid stimulation assay and kinetics of recombinant HaPP5, pNPP as substrate; type: biochemical
T2 sequence (A0A059TAS5 1-490): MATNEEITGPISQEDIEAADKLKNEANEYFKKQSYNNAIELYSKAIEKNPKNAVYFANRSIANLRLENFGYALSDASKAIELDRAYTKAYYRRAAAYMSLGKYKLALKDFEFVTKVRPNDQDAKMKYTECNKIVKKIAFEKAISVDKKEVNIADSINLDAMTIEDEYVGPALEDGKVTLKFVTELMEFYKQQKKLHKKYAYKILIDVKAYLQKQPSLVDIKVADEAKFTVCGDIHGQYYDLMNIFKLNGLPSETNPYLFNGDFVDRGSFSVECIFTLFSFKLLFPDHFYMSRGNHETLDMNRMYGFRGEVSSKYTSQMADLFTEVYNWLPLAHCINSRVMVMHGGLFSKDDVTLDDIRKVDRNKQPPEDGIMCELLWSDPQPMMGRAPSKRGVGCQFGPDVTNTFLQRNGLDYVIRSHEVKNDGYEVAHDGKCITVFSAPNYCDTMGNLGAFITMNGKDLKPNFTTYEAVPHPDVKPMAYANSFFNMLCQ
Source text: as §1

[3] = tested on: E. coli expressed PP5 from E. chinensis; parameters: method as in PMID 24351830; conditions: cited from earlier work
[4] = tested on: E. coli expressed PP5 from P. falciparum; parameters: method as in PMID 11897131; conditions: cited from earlier work
[5] = tested on: E. coli expressed PP5 from T. brucei; parameters: method as in PMID 11290414; conditions: cited from earlier work
[6] = biological target: T3, recombinant PxPP5 (Plutella xylostella, UniProt W0FSW2); assay: Arachidonic acid stimulation assay and kinetics of recombinant PxPP5, pNPP as substrate; type: biochemical
T3 sequence (W0FSW2 1-491): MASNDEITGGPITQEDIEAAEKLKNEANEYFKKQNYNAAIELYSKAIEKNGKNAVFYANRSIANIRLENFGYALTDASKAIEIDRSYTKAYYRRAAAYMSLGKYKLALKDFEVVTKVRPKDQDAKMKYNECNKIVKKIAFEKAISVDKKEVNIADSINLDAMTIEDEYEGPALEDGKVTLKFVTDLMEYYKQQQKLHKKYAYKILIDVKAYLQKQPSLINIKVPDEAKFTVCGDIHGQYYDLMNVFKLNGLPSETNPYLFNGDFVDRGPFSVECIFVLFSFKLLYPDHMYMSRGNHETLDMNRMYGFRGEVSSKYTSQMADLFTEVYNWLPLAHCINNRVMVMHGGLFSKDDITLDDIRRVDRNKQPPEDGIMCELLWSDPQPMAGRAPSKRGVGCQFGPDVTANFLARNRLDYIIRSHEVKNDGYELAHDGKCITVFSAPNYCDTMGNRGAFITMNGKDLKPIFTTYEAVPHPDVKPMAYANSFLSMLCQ
Source text: as §1

[7] = tested on: total crude protein phosphatases; assay: Arachidonic acid stimulation of crude PPP extracts, phosphopeptides as substrate; type: biochemical, H. armigera, M. separata and P. xylostella; conditions: larvae extracts of three insects
Procedure: (§2) One gram of 4th instar larvae of each insects were ground into a homogeneous state in ice-cold 20 mM Tris (pH = 7.5), 0.1% β-mercaptoethanol, 1 mM EDTA, 1 mM benzamidine and 1 mM (PMSF). This was then centrifuged at 12,000 g for 30 min at 4°C. The supernatant extract was desalted using Sephadex G-25 spin columns (GE Healthcare, Boston, MA, USA) to remove the contaminating free phosphate as described in the instruction manual. Each insect extract contained three biological replicates. Protein concentration was estimated using the method of Bradford.
(§3) Phosphatases activity of crude extract was determined towards phosphopeptides using PPP assay kit (Promega, Madison, WI, USA) in half-area 96-well plates (Corning, NY, USA) following the manual instruction. In brief, 1.0 µg protein was mixed in assay buffer of 50 mM imidazole (pH 7.2), 0.2 mM EGTA, 0.02% β-mercaptoethanol, 0.1 mg ml^−1 BSA, and pre-warmed to 30°C. Reaction was initiated after adding 100 µM phosphopeptides, RRA(pT)VA to obtain a final volume of 50 µL and incubated at 30°C for 15 min. The reaction was stopped by adding 50 µL of molybdate dye/additive mixture and incubated for an additional 15 min at room temperature for color development. Control samples were determined without enzyme.

[8] = biological target: T2, recombinant HaPP5; assay: Inhibition assay of recombinant HaPP5 phosphatase activity, pNPP as substrate; type: biochemical
Procedure: as §1
(§4) Three candidate inhibitors were dissolved in dimethyl sulphoxide (DMSO) to provide stock solutions of 10 mM for okadaic acid, 100 mM for cantharidin, and 200 mM for endothall, respectively. All solutions were diluted to the desired concentrations with assay buffer before use. Assays were carried out using pNPP as substrate for purified proteins or using RRA(pT)VA as substrate for crude PPP extract. Before initiating the reaction, the enzyme was incubated with the chemicals for 5 min at room temperature. A dose-response assay was used to determine the IC50 values. The non-enzyme reaction was taken as the background control, while the non-inhibitor reaction was used as the full-activity control.

[9] = tested on: three lepidopteran PP5 proteins; assay: Inhibition of the three recombinant lepidopteran PP5 proteins (stated jointly), pNPP as substrate; type: biochemical, H. armigera, M. separata and P. xylostella; conditions: range over HaPP5, MsPP5 and PxPP5
Procedure: as §1, §4

[10] = biological target: T1, recombinant MsPP5; assay: Inhibition assay of recombinant MsPP5 phosphatase activity, pNPP as substrate; type: biochemical
Procedure: as §1, §4

[11] = biological target: T3, recombinant PxPP5; assay: Inhibition assay of recombinant PxPP5 phosphatase activity, pNPP as substrate; type: biochemical
Procedure: as §1, §4

[12] = tested on: crude PPP extracts; assay: Inhibition of phosphatase activity of crude PPP extracts, phosphopeptide RRA(pT)VA as substrate; type: biochemical, H. armigera, M. separata and P. xylostella; conditions: treated with 1.0 µM inhibitor, range over three insect extracts
Procedure: as §2, §3, §4

[13] = tested on: E. chinensis PP5; parameters: method as in PMID 24351830; conditions: cited from earlier work
[14] = substrate: O=[N+]([O-])c1ccc(OP(=O)(O)O)cc1; assay: purified protein, by the assay type; conditions: pH 7.5; 30.0 °C
[15] = 0.25 h, up to, dose dependent, maximum activation at 150 µM
[16] = addition of 150 µM arachidonic acid
[17] = up to, dose dependent, maximum activation at 150 µM, 15 min, 150 µM

## CCCCC/C=C\C/C=C\C/C=C\C/C=C\CCCC(=O)O [arachidonic acid]
[1]; [15]
  maximal fold induction at 150 µM: ~2
[1]; [16]
  Elevation of Vmax value of MsPP5: 1.54 fold
  Reduction of Km value of MsPP5: 1.86 fold
[1]; [17]
  Stimulation of activity of recombinant MsPP5: ≤ 1.99 fold
[2]; [15]
  maximal fold induction at 150 µM: ~2
[2]; [16]
  Elevation of Vmax value of HaPP5: 1.33 fold
  Reduction of Km value of HaPP5: 2.07 fold
[2]; [17]
  Stimulation of activity of recombinant HaPP5: up to 1.78 fold
[3]
  Maximum activation of E. coli expressed PP5 from E. chinensis: 2.3 fold
[4]
  Maximum activation of E. coli expressed PP5 from P. falciparum: 2.0 fold
[5]
  Maximum activation of E. coli expressed PP5 from T. brucei: 2.6 fold
[6]; [15]
  maximal fold induction at 150 µM: ~2
[6]; [16]
  Elevation of Vmax value of PxPP5: 1.26 fold
  Reduction of Km value of PxPP5: 2.16 fold
[6]; [17]
  Stimulation of activity of recombinant PxPP5: ≤ 1.81 fold
[7]
  Stimulation of phosphatase activity of total crude extracts: no significant stimulation

## C[C@@]12C(=O)OC(=O)[C@]1(C)[C@H]1CC[C@@H]2O1 [cantharidin]
[8]
  IC50: 1.28 ± 0.31 µM
[9]
  IC50: 0.73 to 2.38 µM
[10]
  IC50: 2.38 ± 0.48 µM
[11]
  IC50: 0.73 ± 0.27 µM
[12]
  Residual phosphatase activities of the three crude extracts: 57.65–61.23%

## O=C(O)[C@@H]1[C@H](C(=O)O)[C@H]2CC[C@@H]1O2 [endothall]
[8]
  IC50: 19.3 ± 2.34 µM
[10]
  IC50: 12.6 ± 1.62 µM
[11]
  IC50: 6.84 ± 0.47 µM
[12]
  Residual phosphatase activities of the three crude extracts: 83.77–87.66%

## C=C1[C@@H](O)[C@@H]2O[C@]3(CC[C@H](/C=C/[C@@H](C)[C@@H]4CC(C)=C[C@@]5(O[C@H](C[C@@](C)(O)C(=O)O)CC[C@H]5O)O4)O3)CC[C@H]2O[C@@H]1[C@@H](O)C[C@H](C)[C@H]1O[C@@]2(CCCCO2)CC[C@H]1C [okadaic acid]
[13]
  IC50: 0.19 µM
[8]
  IC50: 0.0418 ± 0.00331 µM
[10]
  IC50: 0.0176 ± 0.0032 µM
[11]
  IC50: 0.025 ± 0.00164 µM
[12]
  Residual phosphatase activities of the three crude extracts: 16.37–18.89%

B1: MsPP5 (Mythimna separata) (protein)
chain: MASNEEITGPISQEDMEAADKLKNEANEYFKKQSYNNAIELYSKAIEKNPKNAVFFANRSIANLRLENFGYALSDASKAIELDRSYTKAYYRRAAAYMSLGKYKLALKDFEYVTKVRPNDQDAKMKYTECNKIVKKIAFEKAISVDKKEVNIADSINLEAMTIEDEYVGPALEDGVVTLKFVTELMEFYKQQKKLHKKYAYKILIDVKAYLQKQPSLIDIKVADDAKFTVCGDIHGQYYDLMNIFKLNGLPSETNPYLFNGDFVDRGSFSVECIFTLFSFKLLFPNHFYMSRGNHETLDMNRMYGFRGEVSSKYTSQMADLFTEVYNWLPLAHCINGRVLVMHGGLFSKDDVTLDDIRKVDRNKQPPEDGIMCELLWSDPQPMAGRAPSKRGVGCQFGPDVTSTFLQRNGLDYVIRSHEVKNDGYEIAHDGKCITVFSAPNYCDTMGNLGAFITMNGKDLKPNFTTYEAVAHPDVKPMAYANSFFNMLCQ
[14]
  Km: 9.01 ± 0.51 mM

B2: HaPP5 (Helicoverpa armigera) (protein)
chain: MATNEEITGPISQEDIEAADKLKNEANEYFKKQSYNNAIELYSKAIEKNPKNAVYFANRSIANLRLENFGYALSDASKAIELDRAYTKAYYRRAAAYMSLGKYKLALKDFEFVTKVRPNDQDAKMKYTECNKIVKKIAFEKAISVDKKEVNIADSINLDAMTIEDEYVGPALEDGKVTLKFVTELMEFYKQQKKLHKKYAYKILIDVKAYLQKQPSLVDIKVADEAKFTVCGDIHGQYYDLMNIFKLNGLPSETNPYLFNGDFVDRGSFSVECIFTLFSFKLLFPDHFYMSRGNHETLDMNRMYGFRGEVSSKYTSQMADLFTEVYNWLPLAHCINSRVMVMHGGLFSKDDVTLDDIRKVDRNKQPPEDGIMCELLWSDPQPMMGRAPSKRGVGCQFGPDVTNTFLQRNGLDYVIRSHEVKNDGYEVAHDGKCITVFSAPNYCDTMGNLGAFITMNGKDLKPNFTTYEAVPHPDVKPMAYANSFFNMLCQ
[14]
  Km: 8.64 ± 0.95 mM

B3: PxPP5 (Plutella xylostella) (protein)
chain: MASNDEITGGPITQEDIEAAEKLKNEANEYFKKQNYNAAIELYSKAIEKNGKNAVFYANRSIANIRLENFGYALTDASKAIEIDRSYTKAYYRRAAAYMSLGKYKLALKDFEVVTKVRPKDQDAKMKYNECNKIVKKIAFEKAISVDKKEVNIADSINLDAMTIEDEYEGPALEDGKVTLKFVTDLMEYYKQQQKLHKKYAYKILIDVKAYLQKQPSLINIKVPDEAKFTVCGDIHGQYYDLMNVFKLNGLPSETNPYLFNGDFVDRGPFSVECIFVLFSFKLLYPDHMYMSRGNHETLDMNRMYGFRGEVSSKYTSQMADLFTEVYNWLPLAHCINNRVMVMHGGLFSKDDITLDDIRRVDRNKQPPEDGIMCELLWSDPQPMAGRAPSKRGVGCQFGPDVTANFLARNRLDYIIRSHEVKNDGYELAHDGKCITVFSAPNYCDTMGNRGAFITMNGKDLKPIFTTYEAVPHPDVKPMAYANSFLSMLCQ
[14]
  Km: 8.83 ± 0.75 mM
